Data: ChEMBL document CHEMBL1146786, “Lingshuiol, a novel polyhydroxyl compound with strongly cytotoxic activity from the marine dinoflagellate Amphidinium sp” (Bioorg Med Chem Lett, 2004)

Experiments:
A549 = test: In vitro cytotoxic activity of compound against A-549 cell line; type: functional, cell-based; details: Homo sapiens
HL-60 = test: In vitro cytotoxic activity of compound against HL-60 cell line; type: functional, cell-based; details: Homo sapiens

## C=CCCCCCCCCCC/C=C/C(O)C(O)C1OC(C(O)C(O)C(=C)CCC(O)C2CC(O)C(O)C(C(O)C(O)/C=C(\C)CC(O)CC(O)C(O)C(O)C(O)C(O)C(C)CC(O)C(O)CC(C)/C=C/CCC(O)CC(=O)/C=C/CCCCC(O)CO)O2)CC(O)C1O (configuration not stated) [LINGSHUIOL]
A549
  IC50: 210 nM
HL-60
  IC50: 230 nM
